Consider nine molecules from patent publication US7230027B2, “Anti-first-pass effect compounds” (Bioavailability Systems, L.L.C., priority 1997, dated 2007).

For data set [1], the system named is Human Cytochrome P450. The experiment in a line: Protocol C: human cytochrome P450-mediated biotransformation of terfenadine in human hepatic S9. Format: biochemical. As for the experimental part:
Protocol C: Assessment of Human Cytochrome P450-Mediated Biotransformation
The process of preparing incubation mixtures begins by mixing 10 uL of ethanol or an ethanolic solution containing an inhibitor with 100 uL of 100 mg/mL bovine serum albumin (Sigma) dissolved in reaction buffer at room temperature. Reaction buffer is composed of 0.10 M sodium phosphate, 1.0 mM ethylenediaminetetraacetic acid, and 5.0 mM magnesium chloride, pH 7.4 (all reagents: Fisher Scientific). Inhibitory chemicals used were ketoconazole (Research Diagnostics, Inc.), miconazole, bergapten, xanthotoxin (previous three from Sigma), bergamotin, imperatorin, isopimpinellin, psoralen, angelicin (previous five from Indofine Chemical Company, Inc.), and fractions or precipitates resulting from Protocols A, A′, B, B′, or B″ above. When possible, final inhibitor concentrations were expressed in molarity by calculation from the weighed material or by interpolation from HPLC calibration curves prepared with reference materials; otherwise, concentrations are expressed as weight per volume. Reaction tubes are placed on ice in preparation for the manipulations that follow. Sufficient reaction buffer is added so that the final volume of each tube will be 500 uL, 5 uL of a 100-fold concentrate for generating reduced nicotinamide adenine dinucleotide phosphate is added (such that completed reaction mixture contains 1.0 mM nicotinamide adenine dinucleotide phosphate, 1 U/mL glucose-6-phosphate dehydrogenase, and 10 mM glucose-6-phosphate; all from Sigma), and then human hepatic S9 (Anatomic Gift Foundation) is thawed and added in sufficient amounts to cause readily detectable amounts of metabolites to be formed in control reactions (amount necessary varies among individuals, but 10 uL is typical).
The samples prepared above are readied for HPLC assessment using the protocol that follows. Each tube is vortex mixed and centrifuged for 10 min at setting 35, the resulting supernatant is transferred to a clean tube, and the liquid is evaporated using a Speed Vac apparatus. The residue in each tube is first dissolved in 40 uL 1:1 acetonitrile:water, 2.5 mL of acetonitrile is added, and the centrifuge-transfer-evaporate step just described is repeated.
Linear gradients are used for elution and are formed by mixing mobile phase A composed of water with mobile phase B composed of 0.025% (v/v) formic acid in acetonitrile (instrument: Hewlett Packard). The elution time, in minutes, the percentage of mobile phase B present in the mixed mobile phase, and the flow rate (mL/min) are as follows: 0, 10, 0.10; 2, 10, 0.10; 3.5, 10, 0.20; 4, 10, 0.25; 5, 10, 0.25; 30, 55, 0.25; 32, 98, 0.25; 33, 98, 0.40; 39.8, 98, 0.40; 40, 98, 0.25; 45, 10, 0.25; 45.25, 10, 0.20; 50, 10, 0.20; 50.25, 10, 0.10. The chromatographic column has dimensions of 150 mm length×2.1 mm internal diameter, is packed with a proprietary material (Prism, Keystone Scientific, Inc.), is protected with a 2 mm internal diameter column containing the same material and with a PTFE filter, and is maintained at 35+/−0.2° C. The dry sample residue is mixed with 60 uL of 1:1 acetonitrile:water followed by 40 uL water just prior to each 50.25 min run cycle. The column eluate from each 10 uL injection is monitored for fluorescence with excitation at 228 nm, emission at 291 nm, and bandpass filtration at 280 nm.

For data set [2] the following is noted: heart transplant patients, cyclosporin co-administered with ketoconazole; cited from earlier work.
Data set [3] relates to Human Cytochrome P450. The experiment in a line: Protocol C′: human cytochrome P450-mediated biotransformation of saquinavir in human hepatic S9. Format: biochemical. As for the experimental part:
Protocol C′: Assessment of Human Cytochrome P450-Mediated Biotransformation
The process of preparing incubation mixtures begins by mixing 10 uL of ethanol (control reactions) or an ethanolic solution containing an inhibitor with 100 uL of 100 mg/mL bovine serum albumin (Sigma) dissolved in reaction buffer at room temperature. Reaction buffer is composed of 0.10 M sodium phosphate, 1.0 mM ethylenediaminetetraacetic acid, and 5.0 mM magnesium chloride, pH 7.4 (all reagents: Fisher Scientific). […] Sufficient reaction buffer is added so that the final volume of each tube will be 500 uL, 5 uL of a 100-fold concentrate for generating reduced nicotinamide adenine dinucleotide phosphate is added (such that completed reaction mixture contains 1.0 mM nicotinamide adenine dinucleotide phosphate, 1 U/mL glucose-6-phosphate dehydrogenase, and 10 mM glucose-6-phosphate; all from Sigma), and then human hepatic S9 (Anatomic Gift Foundation) is thawed and added in sufficient amounts to cause readily detectable amounts of metabolites to be formed in control reactions (amount necessary varies among individuals, but 10 uL is typical). […]
The samples prepared above are readied for HPLC assessment using the protocol that follows. […]

The conditions of data set [4]: oral tablet; cited from earlier work.
The mark [5] stands for this setting: protocol not given, Protocol C or C′.

Where two headings read alike, the source gives them in different places.

For `COc1c2ccoc2c(OC)c2oc(=O)ccc12` [isopimpinellin], the “first-pass effect inhibition, determined herein” value (“first-pass effect inhibition” below) in the data set on Human Cytochrome P450 [1] is “ineffective”.

With `C/C(=C\COc1ccc2ccc(=O)oc2c1)CC[C@@H](O)C(C)(C)O` [marmin], the “first-pass effect inhibition” value in the data set on Human Cytochrome P450 [1] is on record as “ineffective”.

Turning to `CC(=CCOc1c2ccoc2cc2oc(=O)ccc12)CCC(O)C(C)(C)O` (centres unmarked) [6′,7′-dihydroxybergamottin], in the data set with Human Cytochrome P450 [1], the “first-pass effect inhibition” value is given as “ineffective”.

Regarding `O=c1ccc2ccc3occc3c2o1` [angelicin], the “first-pass effect inhibition” value in the data set on Human Cytochrome P450 [1] (setting [5]) is reported as “ineffective”.

Take `CC(=O)N1CCN(c2ccc(OCC3COC(Cn4ccnc4)(c4ccc(Cl)cc4Cl)O3)cc2)CC1` (centres unmarked) [ketoconazole]: the “reduction of the dose of cyclosporin required” value in data set [2] was “approximately 85%”.

In the case of `CC(C)=CCOc1c2occc2cc2ccc(=O)oc12` [imperatorin], the “first-pass effect inhibition” value with Human Cytochrome P450 [1] (setting [5]) was “ineffective”. Besides, the “first-pass inhibition (generation of saquinavir metabolites in presence of inhibitor)” value in the data set on Human Cytochrome P450 [3] (Protocol C′, human hepatic S9, FIG. 1) is listed as “essentially ineffective”.

Regarding `O=c1ccc2cc3ccoc3cc2o1` [psoralen], the “first-pass effect inhibition” value with Human Cytochrome P450 [1] (setting [5]) was “ineffective”.

`CC(C)=CCC/C(C)=C/COc1c2ccoc2cc2oc(=O)ccc12` [bergamottin]: the “first-pass effect inhibition” value in the data set on Human Cytochrome P450 [1] is recorded as “ineffective”. Besides, the “first-pass inhibition (generation of saquinavir metabolites in presence of inhibitor)” value in the data set with Human Cytochrome P450 [3] is listed as “essentially ineffective”.

With `CC(C)(C)c1ccc(C(O)CCCN2CCC(C(O)(c3ccccc3)c3ccccc3)CC2)cc1` (centres unmarked) [terfenadine], the “part of a tablet given by mouth quickly changed to metabolites” value in data set [4] is 99.5%.
